Laboratory results published in patent US20140170096A1, “SUNSCREEN COMPOSITIONS” (priority 2011, published 2014).
Entries after “also recorded” stand apart in the source; their conditions may differ. Like-named read-outs stand apart in the source and are kept apart here.

What was measured:
[1] = test system: symbiotic zooxanthellae released from coral nubbins; assay: Zooxanthellae counts: zooxanthellae released in water surrounding coral nubbins; format: in vivo, Acropora sp.; conditions: for Healthy zooxanthellae released / Pale zooxanthellae released / Total zooxanthellae released / Transparent (i.e., dead) zooxanthellae released: end of incubation (72 h); for Percentage of healthy zooxanthellae released / Percentage of pale zooxanthellae released / Percentage of transparent zooxanthellae released: of total released; for Abundance of released zooxanthellae compared with the BLK system: statistical analysis, P<0.01
Method: (§1) In situ tests were performed on nubbins (i.e., small branches of about 3-6 cm) of the stony coral Acropora sp. The nubbins were incubated in microcosms in presence of known concentrations of various ingredients potentially to be included in the composition of the eco-compatible sunscreen cream. In particular, coral nubbins (including more than 3000 polyps each) were collected by scuba divers from the same colony, located at a depth of about 3 m on the edge of the reef slope. Sampling of nubbins was performed by means of forceps. The nubbins were washed with seawater filtered onto 0.02-μm filters to eliminate viruses and prokaryotes. Each microcosm was prepared with a replicate set of nubbins (n=3) immersed in sterile polyethylene bags (Whirl-pack, Nasco, Fort Atkinson, Wis., USA) filled with 2 L filtered seawater. A total of 27 microcosms were prepared, in order to test 20 ingredients with the respective positive and negative controls. The microcosms were incubated at in situ temperature and light conditions for 72 hours.
Subsamples (50 mL) of seawater surrounding coral nubbins were collected at the start of the experiment (T0) and after 6, 12, 24, 36, 48 and 72 hours of incubation. The subsamples were fixed in 3% glutaraldehyde and then about 6.0 ml of each replicate was filtered through 2.0-μm polycarbonate filters. Filters were mounted on glass slides and zooxanthellae counted under epifluorescence microscopy (Zeiss Axioplan, Carl Zeiss Inc., Jena, Germany; ×400 and ×1000) using standard and UV light.

[2] = test system: viruses in water surrounding coral nubbins; assay: Viral abundance and viral enrichment in seawater surrounding coral nubbins (microcosm incubation); conditions: for Total viral abundances (TVN): seawater surrounding Acropora sp. nubbins, compound concentration per Table 2; for Viral enrichment factor (VEF): ratio of viral abundances, end vs start of incubation
Method: as §1
(§2) After subsampling, sea water was transferred into sterile test tubes without use of fixatives and stored at −20° C. until laboratory analysis for quantification of viral and prokaryotic abundance. Once in laboratory, the water samples were immediately processed. Briefly, 200 uL sea water were diluted 1:10 with prefiltered MilliQ water, through 0.02-μm pore filters (Anodisc filter; 25-mm diameter, Al2O3; Whatman) and stained with 20 μL SYBR Green (stock solution diluted 1:20; Invitrogen, Carlsbad, Calif., USA). […] Slides were stored at −20° C. until microscopy analysis. Virus and prokaryote counts were obtained by epifluorescence microscopy (magnification, ×1000; Zeiss Axioplan) by examining at least 10 optical fields, that is, at least 200 cells or viruses per replicate. Viral (and prokaryotic) enrichment was calculated as ratio between virus (and prokaryote) abundances and virus (and prokaryote) abundance at the […] of the experiment.

[3] = test system: stony coral Acropora sp. nubbins; assay: Quantification of coral bleaching by colorimetric (CMYK) analysis of digital photographs; format: in vivo; conditions: for Number of color channels (of 4, CMYK) significantly altered: after 72 h of incubation; for One-way ANOVA probability level, color component Black (K) / One-way ANOVA probability level, color component Cyan (C) / One-way ANOVA probability level, color component Magenta (M) / One-way ANOVA probability level, color component Yellow (Y): coral color change, start vs after treatment
Method: as §1
Photographs were taken under identical illumination with a Canon PowerShot A620 digital camera (Canon Inc., Tokyo, Japan) with a scale meter on the background. The photos were successively analyzed with a photo-editing software (Adobe Photoshop CS2) for color composition [cyan, magenta, yellow, black (CMYK)]. Levels of bleaching were measured as the difference between the corals' color at the beginning of the experiment and after treatments. Variations in the percentage of the different color components (CMYK) were analyzed with one-way analysis of variance (ANOVA). To rank the bleaching effect due to the compounds tested, a Bray-Curtis similarity matrix was prepared and a multidimensional scaling analysis of the shifts in CMYK color composition of treated corals was performed using Primer 5.0 software (Primer-E Ltd., Plymouth, UK). Bleaching rates were measured as the dissimilarity percentage in CMYK color composition between treated and control corals using the SIMPER tool of Primer 5.0 software (Primer-E Ltd).

[4] = test system: prokaryotes in water surrounding coral nubbins; assay: Prokaryotic (bacterial) abundance and enrichment in seawater surrounding coral nubbins (microcosm incubation); conditions: seawater surrounding Acropora sp. nubbins
Method: as §1, §2

coral reefs = assay: Summary of eco-compatibility of tested products with coral reefs; parameters: species or system Acropora sp.
Method: In order to select the most eco-compatible products for each group of compounds (i.e., base cream, fragrance, antioxidants and filters) the following criteria were selected:
1. coral bleaching level; 2. degree of release of symbiotic zooxanthellae; 3. zooxanthellae health conditions; 4. viral enrichment in the incubation medium with respect to controls.

Row | Abundance of released zooxanthellae compared with the BLK system [1] | Compound | Healthy zooxanthellae released [1] [cells ml^−1] | Pale zooxanthellae released [1] [cells ml^−1] | Total zooxanthellae released [1] [cells ml^−1] | Transparent (i.e., dead) zooxanthellae released [1] [cells ml^−1] | Percentage of healthy zooxanthellae released ([1]; end of incubation) [%] | Percentage of pale zooxanthellae released ([1]; end of incubation) [%] | Percentage of transparent zooxanthellae released ([1]; end of incubation) [%] | Total viral abundances (TVN) ([2]; incubation 0 (start)) [viruses ml^−1] | Total viral abundances (TVN) ([2]; incubation 12 h) [viruses ml^−1] | Viral enrichment factor (VEF) [2] | Bacterial abundance (total bacterial number, TBN) ([4]; incubation 0 (start)) | Bacterial abundance (total bacterial number, TBN) ([4]; incubation 12 h) | other results
1 | significantly higher | CC(=O)Oc1c(C)c(C)c2c(c1C)CCC(C)(CCC[C@H](C)CCC[C@H](C)CCCC(C)C)O2 (mixture of isomers) [System D17, DL-tocopherol-acetate] | 1.48E+03 | 1.88E+04 | 4.45E+04 | 2.42E+04 | 3 | 42 | 54 | 3.49E+05 | 2.83E+06 | 8.36 | 5.80E+04 | 1.42E+06 | Eco-compatibility (coral reefs; criteria: bleaching level, zooxanthellae release, zooxanthellae health, viral enrichment, listed as Tocopheryl acetate): Highly compatible; Eco-compatibility (coral reefs; criteria: bleaching level, zooxanthellae release, zooxanthellae health, viral enrichment, listed as tocopheryl acetate): greater eco-compatibility
2 |  | CO[C@@]12[C@H](COC(N)=O)C3=C(C(=O)C(C)=C(N)C3=O)N1C[C@@H]1N[C@@H]12 [MITO, Mitomycin C, reference compound] | 0.00E+00 | 5.25E+03 | 2.20E+04 | 1.68E+04 | 0 | 24 | 76 | 1.11E+05 | 1.53E+06 |  | 1.11E+05 | 1.53E+06 | Number of color channels (of 4, CMYK) significantly altered [3]: 4; One-way ANOVA probability level, color component Black (K) [3]: ** (** = P < 0.01); One-way ANOVA probability level, color component Cyan (C) [3]: ** (** = P < 0.01); One-way ANOVA probability level, color component Magenta (M) [3]: ** (** = P < 0.01); One-way ANOVA probability level, color component Yellow (Y) [3]: ** (** = P < 0.01)
3 | significantly higher | Cc1c(C)c2c(c(C)c1O)CC[C@@](C)(CCC[C@H](C)CCC[C@H](C)CCCC(C)C)O2 [System D16, Alpha-tocopherol] | 4.09E+03 | 1.25E+04 | 2.67E+04 | 1.01E+04 | 15 | 47 | 38 | 3.24E+05 | 1.46E+06 | 4.54 | 3.78E+04 |  | Eco-compatibility (coral reefs; criteria: bleaching level, zooxanthellae release, zooxanthellae health, viral enrichment, listed as Tocopherol): Highly compatible; Eco-compatibility (coral reefs; criteria: bleaching level, zooxanthellae release, zooxanthellae health, viral enrichment, listed as tocopherol): greater eco-compatibility
4 |  | CC(C)(C)CC(C)(C)c1cc(Cc2cc(C(C)(C)CC(C)(C)C)cc(-n3nc4ccccc4n3)c2O)c(O)c(-n2nc3ccccc3n2)c1 [System D22] | 4.70E+02 | 6.91E+03 | 1.80E+04 | 1.06E+04 | 3 | 38 | 59 | 5.06E+05 | 2.99E+06 | 6.16 | 5.47E+04 | 9.18E+05 | Eco-compatibility (coral reefs; criteria: bleaching level, zooxanthellae release, zooxanthellae health, viral enrichment, listed as MBBT): greater eco-compatibility; also recorded: Highly compatible; Decrease of VPR ([2]; after incubations): up to 10 times
5 |  | CCCCC(CC)COC(=O)c1ccc(Nc2nc(Nc3ccc(C(=O)OCC(CC)CCCC)cc3)nc(Nc3ccc(C(=O)OCC(CC)CCCC)cc3)n2)cc1 (stereo not drawn) [System D24, ethylhexyl triazone] | 2.68E+02 | 8.39E+03 | 1.89E+04 | 1.02E+04 | 1 | 44 | 54 | 9.58E+04 | 1.08E+06 | 12.58 | 2.09E+04 | 7.41E+05 | Eco-compatibility (coral reefs): Compatible
6 |  | CCCCCCOC(=O)c1ccccc1C(=O)c1ccc(N(CC)CC)cc1O [System D25, 2-[4-(diethylamine)-2-hydroxybenzoyl]hexyl benzoate] | 3.35E+02 | 8.86E+03 | 1.64E+04 | 7.25E+03 | 2 | 54 | 44 | 3.67E+05 | 2.63E+06 | 7.44 | 3.67E+05 | 2.63E+06 | Eco-compatibility (coral reefs; criteria: bleaching level, zooxanthellae release, zooxanthellae health, viral enrichment, listed as DHHB): greater eco-compatibility; also recorded: Highly compatible
7 |  | C/C=C/C=C/C(=O)O [sorbic acid] |  |  |  |  |  |  |  |  |  |  |  |  | Harm to the marine environment of coral reefs (coral reefs): did not prove harmful

Row | Compound | Abundance of released zooxanthellae compared with the BLK system [1] | Healthy zooxanthellae released [1] [cells ml^−1] | Pale zooxanthellae released [1] [cells ml^−1] | Total zooxanthellae released [1] [cells ml^−1] | Transparent (i.e., dead) zooxanthellae released [1] [cells ml^−1] | Percentage of healthy zooxanthellae released ([1]; end of incubation) [%] | Percentage of pale zooxanthellae released ([1]; end of incubation) [%] | Percentage of transparent zooxanthellae released ([1]; end of incubation) [%] | Total viral abundances (TVN) ([2]; incubation 0 (start)) [viruses ml^−1] | Total viral abundances (TVN) ([2]; incubation 12 h) [viruses ml^−1] | Viral enrichment factor (VEF) [2] | Bacterial abundance (total bacterial number, TBN) ([4]; incubation 0 (start)) | Bacterial abundance (total bacterial number, TBN) ([4]; incubation 12 h) | other results
8 | 2-phospho-ascorbic acid trisodium salt [System D18] | significantly higher | 1.14E+03 | 1.09E+04 | 2.11E+04 | 9.06E+03 | 5 | 52 | 43 | 3.70E+05 | 2.51E+06 | 7.09 | 3.86E+04 | 1.39E+06 | Final abundance of zooxanthellae in water surrounding the coral nubbins ([1]; end of incubation): 4.45 ×10^4 cell ml^−1; Number of color channels (of 4, CMYK) significantly altered [3]: 4; One-way ANOVA probability level, color component Black (K) [3]: ** (** = P < 0.01); One-way ANOVA probability level, color component Cyan (C) [3]: ** (** = P < 0.01); One-way ANOVA probability level, color component Magenta (M) [3]: ** (** = P < 0.01); One-way ANOVA probability level, color component Yellow (Y) [3]: * (* = P < 0.05)
